Data on six compounds can be found in the NIST ThermoML archive (doi:10.1016/j.jct.2012.02.007).

Broadly, the speed of sound is the propagation velocity of pressure waves in the medium. For orientation: mass density means mass per unit of volume.

For this data set the following is noted: 101.33 kPa, Liquid; for speed of sound: Sing-around technique in a fixed-path interferometer; for mass density: Vibrating tube method.

± gives the expanded uncertainty stated by the source.

For `CCCCO` [butan-1-ol], the speed of sound by setting is: (293.15 K) 1256.7 ± 0.8 m/s; (308.15 K) 1206.5 ± 0.8 m/s; (323.15 K) 1156.9 ± 0.8 m/s. In addition, the mass density reads like this: (293.15 K) 809.53 ± 0.12 kg/m3; (308.15 K) 798.06 ± 0.12 kg/m3; (323.15 K) 786.21 ± 0.12 kg/m3.
As to `CCCCn1cc[n+](C)c1.N#CN=C=[N-]` [1-butyl-3-methylimidazolium dicyanamide], the speed of sound reads like this: (293.15 K) 1750.2 ± 2.2 m/s; (308.15 K) 1712.6 ± 2.2 m/s; (323.15 K) 1667.3 ± 2.2 m/s. In addition, the mass density is, setting by setting: (293.15 K) 1063.32 ± 0.97 kg/m3; (308.15 K) 1053.81 ± 0.95 kg/m3; (323.15 K) 1044.42 ± 0.93 kg/m3.
In the case of `CCCO` [propan-1-ol], the speed of sound runs as follows: (293.15 K) 1223.4 ± 0.8 m/s; (308.15 K) 1172.3 ± 0.8 m/s; (323.15 K) 1121.8 ± 0.8 m/s. For the same compound, the mass density is recorded as 803.87 ± 0.12 kg/m3 (293.15 K), 791.79 ± 0.12 kg/m3 (308.15 K) and 779.3 ± 0.13 kg/m3 (323.15 K).
In the case of `CC(C)O` [propan-2-ol], the speed of sound was 1157.3 ± 0.8 m/s (293.15 K), 1104.8 ± 0.8 m/s (308.15 K) and 1051.6 ± 0.8 m/s (323.15 K). The mass density by setting is: (293.15 K) 785.4 ± 0.13 kg/m3; (308.15 K) 772.6 ± 0.13 kg/m3; (323.15 K) 759 ± 0.14 kg/m3.
`CCC(C)O` (stereo unspecified) [butan-2-ol]: the speed of sound is, setting by setting: (293.15 K) 1229.5 ± 0.9 m/s; (308.15 K) 1175.5 ± 0.8 m/s; (323.15 K) 1120.3 ± 0.8 m/s. Moreover, the mass density reads like this: (293.15 K) 806.47 ± 0.12 kg/m3; (308.15 K) 793.92 ± 0.12 kg/m3; (323.15 K) 780.44 ± 0.13 kg/m3.
Consider `CCCCCO` [pentan-1-ol], for which the speed of sound (293.15 K) was determined as 1292.5 ± 1.3 m/s, the speed of sound (308.15 K) is on record as 1242.4 ± 1.3 m/s and the speed of sound (323.15 K) amounted to 1192.8 ± 1.3 m/s. The mass density reads like this: (293.15 K) 814.54 ± 0.24 kg/m3; (308.15 K) 803.53 ± 0.24 kg/m3; (323.15 K) 792.17 ± 0.24 kg/m3.
